Data as given in ChEMBL document CHEMBL4304741, “Modification and Biological Evaluation of a Series of 1,5-Diaryl-1,2,4-triazole Compounds as Novel Agents against Pancreatic Cancer Metastasis through Targeting Myoferlin” (J Med Chem, 2019).
Activity calls are given as the source filed them. No cut-off for these calls is given here.

Experiments:
PANC-1 [1] = experiment: Antimigratory activity against human PANC1 cells measured after 18 hrs in presence of mitomycin C using crystal violet staining by inverted microscopy-based transwell assay; format: functional, cell-based; details: PANC-1, 18 h
PANC-1 [2] = experiment: Antiinvasive activity against human PANC1 cells measured after 18 hrs in presence of mitomycin C using crystal violet staining by inverted microscopy-based matrigel coated transwell assay; format: functional, cell-based; details: PANC-1, 18 h
PANC-1 [3] = experiment: Antimigratory activity against MYOF-knockout human PANC1 cells measured after 18 hrs in presence of mitomycin C using crystal violet staining by inverted microscopy-based transwell assay; format: functional, cell-based
Myoferlin [4] = target: T1, Myoferlin (Homo sapiens, UniProt Q9NZM1); experiment: Binding affinity to recombinant human GST-tagged MYOF C2 domain (3445 to 3912 residues) expressed in Escherichia coli BL21 (DE3) at 0.3125 to 10 uM by surface plasmon resonance analysis
T1 sequence (Q9NZM1 whole entry, the tested form may be a part): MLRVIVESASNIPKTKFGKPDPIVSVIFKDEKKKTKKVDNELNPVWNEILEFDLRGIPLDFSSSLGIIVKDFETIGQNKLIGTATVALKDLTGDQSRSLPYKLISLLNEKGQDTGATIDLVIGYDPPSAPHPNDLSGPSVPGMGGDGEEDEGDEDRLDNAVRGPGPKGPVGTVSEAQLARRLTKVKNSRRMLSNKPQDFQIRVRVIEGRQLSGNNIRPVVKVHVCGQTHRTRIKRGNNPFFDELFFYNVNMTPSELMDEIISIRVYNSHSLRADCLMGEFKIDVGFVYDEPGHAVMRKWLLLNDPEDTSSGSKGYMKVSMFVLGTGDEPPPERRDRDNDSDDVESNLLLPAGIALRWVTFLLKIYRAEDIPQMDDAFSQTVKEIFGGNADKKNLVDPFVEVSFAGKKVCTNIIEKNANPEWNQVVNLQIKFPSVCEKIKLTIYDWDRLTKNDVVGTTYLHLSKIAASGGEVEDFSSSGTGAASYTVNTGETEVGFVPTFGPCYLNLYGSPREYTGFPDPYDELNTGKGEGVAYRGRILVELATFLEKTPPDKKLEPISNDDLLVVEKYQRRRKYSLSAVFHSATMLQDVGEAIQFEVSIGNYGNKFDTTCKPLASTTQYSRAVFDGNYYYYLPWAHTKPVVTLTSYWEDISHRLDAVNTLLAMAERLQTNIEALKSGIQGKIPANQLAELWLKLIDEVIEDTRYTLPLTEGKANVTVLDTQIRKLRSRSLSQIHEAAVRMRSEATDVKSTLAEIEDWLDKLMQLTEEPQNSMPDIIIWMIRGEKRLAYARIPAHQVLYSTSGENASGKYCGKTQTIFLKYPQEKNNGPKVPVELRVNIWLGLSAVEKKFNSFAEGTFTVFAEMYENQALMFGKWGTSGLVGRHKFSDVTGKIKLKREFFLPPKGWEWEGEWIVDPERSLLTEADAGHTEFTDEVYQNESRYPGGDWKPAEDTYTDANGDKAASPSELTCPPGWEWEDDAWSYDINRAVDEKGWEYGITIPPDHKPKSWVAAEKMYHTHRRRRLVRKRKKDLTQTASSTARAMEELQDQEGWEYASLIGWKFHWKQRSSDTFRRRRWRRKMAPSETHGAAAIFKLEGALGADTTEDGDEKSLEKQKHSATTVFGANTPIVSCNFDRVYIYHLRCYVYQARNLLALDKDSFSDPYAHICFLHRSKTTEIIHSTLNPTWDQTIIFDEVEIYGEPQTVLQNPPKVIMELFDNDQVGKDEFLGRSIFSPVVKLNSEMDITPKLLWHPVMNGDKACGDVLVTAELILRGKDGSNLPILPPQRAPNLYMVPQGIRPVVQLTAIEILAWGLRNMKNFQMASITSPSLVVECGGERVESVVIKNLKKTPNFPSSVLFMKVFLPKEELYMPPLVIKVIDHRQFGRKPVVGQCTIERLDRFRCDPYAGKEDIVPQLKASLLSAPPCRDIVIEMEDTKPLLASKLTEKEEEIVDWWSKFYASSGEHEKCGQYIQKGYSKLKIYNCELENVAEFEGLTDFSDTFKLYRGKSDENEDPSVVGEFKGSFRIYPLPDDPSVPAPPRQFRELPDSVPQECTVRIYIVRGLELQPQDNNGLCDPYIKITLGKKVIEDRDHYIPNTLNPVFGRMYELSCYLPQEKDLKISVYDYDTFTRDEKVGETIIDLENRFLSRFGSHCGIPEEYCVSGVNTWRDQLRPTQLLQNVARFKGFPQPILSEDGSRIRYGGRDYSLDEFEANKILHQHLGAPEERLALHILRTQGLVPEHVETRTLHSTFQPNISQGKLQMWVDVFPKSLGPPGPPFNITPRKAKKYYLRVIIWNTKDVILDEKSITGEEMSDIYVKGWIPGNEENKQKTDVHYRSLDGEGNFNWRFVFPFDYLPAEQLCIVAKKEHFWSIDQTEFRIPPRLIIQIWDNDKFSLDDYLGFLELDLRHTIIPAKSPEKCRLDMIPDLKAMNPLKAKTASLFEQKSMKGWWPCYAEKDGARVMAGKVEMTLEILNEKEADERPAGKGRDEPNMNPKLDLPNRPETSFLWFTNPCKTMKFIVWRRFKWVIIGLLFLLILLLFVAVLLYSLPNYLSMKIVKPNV

Myoferlin [5] = target: T1, Myoferlin; experiment: Binding affinity to recombinant human GST-tagged MYOF C2 domain (3445 to 3912 residues) expressed in Escherichia coli BL21 (DE3) at 0.03125 to 0.5 uM by surface plasmon resonance analysis
PANC-1 [6] = experiment: Antimetastatic activity against human PANC1 cells harboring luciferase reporter gene xenografted in Balb/c nude mouse assessed as mouse survival at 25 mg/kg/day, ip (reference value: 25%); format: functional; details: PANC-1, ip
PANC-1 [7] = experiment: Antimetastatic activity against human PANC1 cells harboring luciferase reporter gene xenografted in Balb/c nude mouse at 25 mg/kg/day, ip measured every 10 days by bioluminescence imaging analysis; format: functional, organism-based
[8] = Toxicity in Balb/c nude mouse xenografted with PANC1 cells assessed as body weight loss at 25 mg/kg/day, ip; format: organism-based; details: in vivo
[9] = Toxicity in Balb/c nude mouse xenografted with PANC1 cells assessed as pathological changes in heart at 25 mg/kg/day, ip by H and E staining-based microscopic analysis; format: organism-based; details: in vivo
[10] = Toxicity in Balb/c nude mouse xenografted with PANC1 cells assessed as pathological changes in lung at 25 mg/kg/day, ip by H and E staining-based microscopic analysis; format: organism-based; details: in vivo
[11] = Toxicity in Balb/c nude mouse xenografted with PANC1 cells assessed as pathological changes in liver at 25 mg/kg/day, ip by H and E staining-based microscopic analysis; format: organism-based; details: in vivo
[12] = Toxicity in Balb/c nude mouse xenografted with PANC1 cells assessed as pathological changes in spleen at 25 mg/kg/day, ip by H and E staining-based microscopic analysis; format: organism-based; details: in vivo
[13] = Toxicity in Balb/c nude mouse xenografted with PANC1 cells assessed as pathological changes in kidney at 25 mg/kg/day, ip by H and E staining-based microscopic analysis; format: organism-based; details: in vivo

Structure (SMILES)	IC50 (PANC-1 [1]) [nM]	also measured
COc1ccc(-c2nc(C)nn2-c2cccc(C(=O)NCCc3ccc(Cl)cc3)c2)cc1	4360	IC50 (PANC-1 [2]): 9870 nM
COc1ccc(-c2nc(C)nn2-c2cccc(C(=O)NCCc3ccncc3)c2)cc1	> 20000	–
COc1ccc(-c2nc(C)nn2-c2cccc(C(=O)NCCCOc3ccccc3)c2)cc1	3120	IC50 (PANC-1 [2]): 3560 nM
CCc1nc(-c2ccc(OC)cn2)n(-c2cccc(C(=O)NCCCCc3ccccc3)c2)n1	120	IC50 (PANC-1 [2]): 150 nM
COc1ccc(-c2nc(C)nn2-c2cccc(C(=O)NCCc3ccccn3)c2)cc1	> 20000	–
CCc1nc(-c2cccc(C(=O)NCCCCc3ccccc3)c2)n(-c2ccc(OC)cc2)n1	420	–
COc1ccc(-c2ncnn2-c2cccc(C(=O)NCCCCc3ccccc3)c2)cc1	> 20000	–
COc1ccc(-c2nc(C)nn2-c2cccc(C(=O)NCCCCc3ccc(Br)cc3)c2)cc1	3020	–
COc1ccc(-c2nc(C)nn2-c2cccc(C(=O)NCCc3ccc(Br)cc3)c2)cc1	3240	IC50 (PANC-1 [2]): 2960 nM
CCc1nc(-c2ccc(OC)cc2)n(-c2cncc(C(=O)NCCCCc3ccccc3)c2)n1	1620	–
COc1ccc(-c2nc(C)nn2-c2cccc(C(=O)NCCOCc3ccccc3)c2)cc1	9340	–
CCc1nc(-c2ccc(OC)nc2)n(-c2cccc(C(=O)NCCCCc3ccccc3)c2)n1	810	–
COc1ccc(-c2nc(C)nn2-c2cccc(C(=O)NCCCc3ccc(Br)cc3)c2)cc1	> 20000	–
CCc1nc(-c2ccc(O)cc2)n(-c2cccc(C(=O)NCCCCc3ccccc3)c2)n1	220	–
CCCCc1nc(-c2ccc(OC)cc2)n(-c2cccc(C(=O)NCCCCc3ccccc3)c2)n1	16800	–
CCc1nc(-c2cnc(OC)cn2)n(-c2cccc(C(=O)NCCCCc3ccccc3)c2)n1	310	–
COc1ccc(-c2nc(C)nn2-c2cccc(C(=O)NCCCc3ccc(Cl)cc3)c2)cc1	> 20000	–

Structure (SMILES)	IC50 (PANC-1 [1]) [nM]	also measured
COc1ccc(-c2nc(C3CC3)nn2-c2cccc(C(=O)NCCCCc3ccccc3)c2)cc1	7680	–
CC(=O)O[C@@]12CO[C@@H]1C[C@H](O)[C@@]1(C)C(=O)[C@H](O)C3=C(C)[C@@H](OC(=O)[C@H](O)[C@@H](NC(=O)OC(C)(C)C)c4ccccc4)C[C@@](O)([C@@H](OC(=O)c4ccccc4)[C@H]21)C3(C)C	–	Activity (PANC-1 [3]): Active
COc1ccc(-c2nc(C)nn2-c2cccc(C(=O)NCCCCc3ccccc3)c2)cc1	630	Activity (Myoferlin [4]): Active
COc1ccccc1N1C(=O)CSC1c1cccc(C(=O)NCCc2ccc(Br)cc2)c1 (stereo not drawn)	390	IC50 (PANC-1 [2]): 540 nM
COc1ccc(-c2nc(C)nn2-c2cccc(C(=O)NCCc3cccs3)c2)cc1	> 20000	–
CCc1nc(-c2ccc(OC(F)(F)F)cc2)n(-c2cccc(C(=O)NCCCCc3ccccc3)c2)n1	640	–
COc1ccc(-c2nc(C(C)C)nn2-c2cccc(C(=O)NCCCCc3ccccc3)c2)cc1	> 20000	–
CCc1nc(-c2ccc(OC)cc2)n(-c2cccc(C(=O)NCCCCc3ccccc3)c2)n1	140	IC50 (PANC-1 [2]): 180 nM; Activity (Myoferlin [5]): Active
CCc1nc(-c2ccc(OC(F)F)cc2)n(-c2cccc(C(=O)NCCCCc3ccccc3)c2)n1	830	–
COc1ccccc1-c1nc(C)nn1-c1cccc(C(=O)NCCc2ccc(Br)cc2)c1	7920	IC50 (PANC-1 [2]): 10900 nM
CCc1nc(-c2cncc(C(=O)NCCCCc3ccccc3)c2)n(-c2ccc(OC)cc2)n1	1350	–
COc1ccc(-c2nc(C)nn2-c2cccc(C(=O)NCCCCCc3ccccc3)c2)cc1	> 20000	–
COc1ccccc1-c1nc(C)nn1-c1cccc(C(=O)NCCc2ccc(Cl)cc2)c1	> 20000	IC50 (PANC-1 [2]): 27600 nM
CCc1nc(-c2cccc(C(=O)NCCCCc3ccccc3)n2)n(-c2ccc(OC)cc2)n1	9640	–
Nc1ccn([C@@H]2O[C@H](CO)[C@@H](O)C2(F)F)c(=O)n1 [GEMCITABINE]	160	IC50 (PANC-1 [2]): 160 nM; survival at 25 mg/kg/day (PANC-1 [6]): 60%; Activity (PANC-1 [7]): Active; Activity [8]: Non-Toxic; Activity [9]: Non-Toxic; Activity [10]: Non-Toxic; Activity [11]: Non-Toxic; Activity [12]: Non-Toxic; Activity [13]: Non-Toxic
CCOc1ccc(-c2nc(CC)nn2-c2cccc(C(=O)NCCCCc3ccccc3)c2)cc1	16800	–
COc1ccc(-n2nc(C)nc2-c2cccc(C(=O)NCCCCc3ccccc3)c2)cc1	1680	–
